Measured values from patent publication US7087721B2, “Compositions, kits and treating methods for alteration cell-cell adhesion, transport, or permeation properties of tissues” (priority 2003, dated 2006).
Entries after “also recorded” stand apart in the source; their conditions may differ.

Legend:
Type in all cases: cell-based, human
[1] = tested on: TMG-expressed A2058 cells; test: Carbohydrate specificity for TM-mediated cell adhesion, TMG cells; settings: 37° C. overnight, light microscopy
Experimental: A variety of simple carbohydrate (D-mannose, D-galactose, D-lactose, D-glucose, D-xylose), heparin, LMW heparin, chondroitin sulfate A, chondroitin sulfate B, and chondroitin sulfate C were tested to determine their ability to block cell-cell adhesion of the TMG cells. In these experiments, the carbohydrate to be tested was added to the cell monolayer to compare its ability to compete with the TMG. The plates were then incubated at 37° C. for overnight and examined by light microscopy (Leica Model DM IL).
FIG. 8. Effect of different carbohydrates on the cell adhesion of TMG cells. TMG-expressed A2058 cells were challenged with 20 mg/ml of monosaccharides (including D-glucose, D-galactose, D-lactose, D-xylose, D-mannose), 20 mg/ml of chondroitin sulfate A, B, C, or 15 mg/ml of heparin, LMW heparin. Following incubation at 37° C. overnight, images were obtained. Each image is representative of the observations from three separate experiments.

[2] = tested on: HaCaT cells; test: Calcium-switch method, HaCaT cells; settings: 4 mM EGTA, 40 min
Experimental: (§1) Cells were grown overnight on glass coverslips at a constant density (5×10^4 cells/well) in 24 well culture plates. The cells were serum-starved for 8 h and Ca^2+ was removed by incubation with DMEM medium containing 4 mM ethyleneglycol-bis-(Amino-Ethyl-Ether) N,N,N′,N′-tetraacetic acid (EGTA) and 1 mM MgCl2 at 37° C. After 1 h, the DMEM medium containing 1.8 mM Ca^2+ was added to replace the Ca^2+-free medium. In control experiments, cells received fresh media in the absence of EGTA. In selected experiments, 10 μg/ml of anti-TM lectin-like antibody, 10 μg/ml of isotype-specific control antibody or anti-E-cadherin antibody (20 μg/ml) was added to the Ca^2+-containing medium.
(§2) FIG. 6. TM participates in Ca^2+-dependent cell-cell adhesion. A2058TMG (A–E) and HaCaT cells (F–J) were left untreated (A, F) or treated with 4 mM EGTA for 40 min (B–E, G–J). The EGTA containing medium was then replaced with Ca^2+-containing medium in the presence of 10 μg/ml control IgG (C, H) for 1 h. After treatment with EGTA, cells were incubated for 1 h in medium containing 1.8 mM Ca^2+ and 10 ? g/ml function-blocking anti-lectin-like antibody (D, I), or anti-E-cadherin antibody (E, J). Green fluorescence shown in panels A to E is the GFP-tagged TM proteins, whereas panels F to J indicate the TM distribution by anti-EGF-like domain antibody detected with tetramethylrhodamine-conjugated anti-mouse antibody. […]

[3] = tested on: A2058TMG cells; test: Calcium-switch method, A2058TMG cells; settings: 4 mM EGTA, 40 min
Experimental: as §1, §2

Row | Molecule | ability to disperse the close clustering morphology of TMG culture cells ([1]; 20 mg/ml) | also measured
1 | O=C[C@H](O)[C@@H](O)[C@@H](O)[C@H](O)CO [D-galactose] | only mannose was found to be effective | –
2 | O=C[C@H](O)[C@@H](O)[C@H](O)[C@H](O)CO [D-glucose] | only mannose was found to be effective | –
3 | OC[C@H]1O[C@@H](O[C@H]2[C@H](O)[C@@H](O)C(O)O[C@@H]2CO)[C@H](O)[C@@H](O)[C@H]1O (stereo partly drawn) [D-lactose] | only mannose was found to be effective | –
4 | O=C[C@@H](O)[C@@H](O)[C@H](O)[C@H](O)CO [D-mannose] | effective in inducing of cell dispersion; also recorded: highest dispersing effect | –
5 | O=C[C@H](O)[C@@H](O)[C@H](O)CO [D-xylose] | only mannose was found to be effective | –
6 | O=C(O)CN(CCOCCOCCN(CC(=O)O)CC(=O)O)CC(=O)O [EGTA, ethyleneglycol-bis-(Amino-Ethyl-Ether) N,N,N′,N′-tetraacetic acid] | – | cell-to-cell contacts in EGTA-containing medium [2]: disrupted; cell-to-cell contacts in EGTA-containing medium [3]: disrupted
7 | chondroitin 4-sulfate [chondroitin sulfate A] | could induce cell dispersion | –
8 | chondroitin 6-sulfate [chondroitin sulfate C] | could induce cell dispersion | –
9 | dermatan sulfate [chondroitin sulfate B] | no effect | –
10 | heparin | – | ability to disperse the close clustering morphology of TMG culture cells ([1]; 15 mg/ml): minor inhibitory effect on the cell adhesion
